# Results as given in patent US20230067929A1, “HETEROCYCLIC DERIVATIVES, PHARMACEUTICAL COMPOSITIONS AND THEIR USE IN THE TREATMENT, AMELIORATION OR PREVENTION OF CANCER” (Tolremo Therapeutics AG, priority 2018, published 2023).
# pEC50, pKd: −log10 of the molar value.
# Tested on: A375 cells
# Assay: A375 cell immunofluorescence assay (with 1 μM S1152 and 0.5 μM S1008), EC50
# Type: cell-based
# Conditions: 1 μM S1152 + 0.5 μM S1008, one day, ratio FL2/FL3 staining (sc-365823 antibody)
# In short: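 A375 cells were treated for 1 day with 1 μM S1152, 0.5 μM S1008 and compound dose ranges in DMEM/10% FCS/2 mM glutamine, then fixed, permeabilized and immunostained (secondary antibody 2 μg/ml). FL2 (500-530 nm) signal was measured in propidium iodide-defined objects (FL3, 565-600 nm). The normalized ln FL2/ln FL3 ratio was log-transformed, and EC50 came from a 4-parameter fit.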
row,Structure (SMILES),pEC50
1,CCC(=O)N1CCCC(c2nc(Nc3cccc(F)c3)cc(-c3sc(C(C)C)nc3C)n2)C1 (centres unmarked),5.00 to 6.00
2,CC(=O)N1CCCC(c2nc(NC34CC(C3)C4)cc(-c3cncnc3)n2)C1 (centres unmarked),< 5.00
3,CC(=O)N1CCCC(c2nc(Nc3cccc(F)c3)cc(N3CCOCC3)n2)C1 (centres unmarked),< 5.00
4,CC(=O)N1C[C@H](c2nc(Nc3cccc(C)c3)cc(-c3cncc4[nH]ncc34)n2)CC[C@@H]1C,5.00 to 6.00
5,CC(=O)N1CCCC(c2nc(Nc3cccc(C)c3)cc(-c3cncc4[nH]ncc34)n2)C1 (centres unmarked),> 6.00
6,CC(=O)N1CCCC(c2nc(Nc3cccc(F)c3)cc(-c3cncc(N4CCNCC4)c3)n2)C1 (centres unmarked),< 5.00
7,CC(=O)N1CCN(c2cncc(-c3cc(Nc4cccc(F)c4)nc(C4CCCN(C(C)=O)C4)n3)c2)CC1 (centres unmarked),5.00 to 6.00
8,CC(=O)N1CCCC(c2nc(Nc3cccc(F)c3)cc(-c3cncc4[nH]ccc34)n2)C1 (centres unmarked) [drawing 556],> 6.00
9,CC(=O)N1CCCC(c2nc(Nc3cccc(F)c3)cc(-c3cncc4[nH]ccc34)n2)C1 (centres unmarked) [drawing 575],5.00 to 6.00
10,CC(=O)N1CC(c2cc(Nc3cccc(F)c3)cc(-c3cccnc3)n2)CCC1C (centres unmarked) [drawing 689],< 5.00
11,CC(=O)N1CC(c2cc(Nc3cccc(F)c3)cc(-c3cccnc3)n2)CCC1C (centres unmarked) [drawing 690],5.00 to 6.00
12,CC(=O)N1CC(F)CC(c2nc(Nc3cccc(F)c3)cc(-c3cccnc3)n2)C1 (centres unmarked) [drawing 702],5.00 to 6.00
13,CC(=O)N1CC(F)CC(c2nc(Nc3cccc(F)c3)cc(-c3cccnc3)n2)C1 (centres unmarked) [drawing 703],5.00 to 6.00
14,CC(=O)N1CCC(C)C(c2nc(Nc3cccc(F)c3)cc(-c3cccnc3)n2)C1 (centres unmarked) [drawing 719],5.00 to 6.00
15,CC(=O)N1CCC(C)C(c2nc(Nc3cccc(F)c3)cc(-c3cccnc3)n2)C1 (centres unmarked) [drawing 720],5.00 to 6.00

# Second part, the compound after the results:
row,pEC50,Structure (SMILES)
1,< 5.00,CCC(=O)N1CCCC(c2nc(Nc3cccc(F)c3)cc(-c3ccncc3)n2)C1 (centres unmarked)
2,< 5.00,CCC(=O)N1CCCC(c2nc(Nc3cccc(F)c3)cc(-c3cncc(F)c3)n2)C1 (centres unmarked)
3,< 5.00,CCC(=O)N1CCCC(c2nc(Nc3cccc(F)c3)cc(-c3ccc(C(=O)NC)nc3)n2)C1 (centres unmarked)
4,5.00 to 6.00,CCC(=O)N1CCCC(c2nc(Nc3cccc(F)c3)cc(-c3ccc(C(=O)NC)cc3)n2)C1 (centres unmarked)
5,< 5.00,CCC(=O)N1CCCC(c2nc(Nc3cccc(F)c3)cc(-c3cccc(C(=O)NC)c3)n2)C1 (centres unmarked)
6,5.00 to 6.00,CCC(=O)N1CCCC(c2nc(Nc3cccc(F)c3)cc(-c3cccc(NC(C)=O)c3)n2)C1 (centres unmarked)
7,5.00 to 6.00,CCC(=O)N1CCCC(c2nc(Nc3cccc(F)c3)cc(-c3cncc(C(=O)NC)c3)n2)C1 (centres unmarked)
8,5.00 to 6.00,CCC(=O)N1CCCC(c2nc(Nc3cccc(F)c3)cc(-c3cnccc3OC)n2)C1 (centres unmarked)
9,5.00 to 6.00,CCC(=O)N1CCCC(c2nc(Nc3cccc(F)c3)cc(-c3ccc(NC(C)=O)cc3)n2)C1 (centres unmarked)
10,< 5.00,CCC(=O)N1CCCC(c2nc(Nc3cccc(F)c3)cc(-c3ccccc3NC(C)=O)n2)C1 (centres unmarked)
11,< 5.00,CCC(=O)N1CCCC(c2nc(Nc3cccc(F)c3)cc(-c3ccccc3OC)n2)C1 (centres unmarked)
12,< 5.00,CCC(=O)N1CCCC(c2nc(Nc3cccc(F)c3)cc(-c3cn(C)nc3C)n2)C1 (centres unmarked)
13,5.00 to 6.00,CCC(=O)N1CCCC(c2nc(Nc3cccc(F)c3)cc(-c3csc4cnccc34)n2)C1 (centres unmarked)
14,5.00 to 6.00,CCC(=O)N1CCCC(c2nc(Nc3cccc(F)c3)cc(-c3cnn(CC(F)(F)F)c3)n2)C1 (centres unmarked)
15,< 5.00,CCC(=O)N1CCCC(c2nc(Nc3cccc(F)c3)cc(-c3cncc4[nH]ccc34)n2)C1 (centres unmarked)
16,5.00 to 6.00,CCC(=O)N1CCCC(c2nc(Nc3cccc(F)c3)cc(-c3ccc4scnc4c3)n2)C1 (centres unmarked)
17,5.00 to 6.00,CCC(=O)N1CCCC(c2nc(Nc3cccc(F)c3)cc(-c3cccc(-c4nnc(C)o4)c3)n2)C1 (centres unmarked)
18,5.00 to 6.00,CCC(=O)N1CCCC(c2nc(Nc3cccc(F)c3)cc(-c3cccc(C#N)c3)n2)C1 (centres unmarked)
19,< 5.00,CCC(=O)N1CCCC(c2nc(Nc3cccc(F)c3)cc(-c3cnn(C4CCC4)c3)n2)C1 (centres unmarked)

# Biological target: T1, TRIM33(PHD, Bromo.) (Homo sapiens, UniProt Q9UPN9)
# T1 construct: TRIM33(PHD, Bromo.)
# T1 sequence (Q9UPN9 1-1127): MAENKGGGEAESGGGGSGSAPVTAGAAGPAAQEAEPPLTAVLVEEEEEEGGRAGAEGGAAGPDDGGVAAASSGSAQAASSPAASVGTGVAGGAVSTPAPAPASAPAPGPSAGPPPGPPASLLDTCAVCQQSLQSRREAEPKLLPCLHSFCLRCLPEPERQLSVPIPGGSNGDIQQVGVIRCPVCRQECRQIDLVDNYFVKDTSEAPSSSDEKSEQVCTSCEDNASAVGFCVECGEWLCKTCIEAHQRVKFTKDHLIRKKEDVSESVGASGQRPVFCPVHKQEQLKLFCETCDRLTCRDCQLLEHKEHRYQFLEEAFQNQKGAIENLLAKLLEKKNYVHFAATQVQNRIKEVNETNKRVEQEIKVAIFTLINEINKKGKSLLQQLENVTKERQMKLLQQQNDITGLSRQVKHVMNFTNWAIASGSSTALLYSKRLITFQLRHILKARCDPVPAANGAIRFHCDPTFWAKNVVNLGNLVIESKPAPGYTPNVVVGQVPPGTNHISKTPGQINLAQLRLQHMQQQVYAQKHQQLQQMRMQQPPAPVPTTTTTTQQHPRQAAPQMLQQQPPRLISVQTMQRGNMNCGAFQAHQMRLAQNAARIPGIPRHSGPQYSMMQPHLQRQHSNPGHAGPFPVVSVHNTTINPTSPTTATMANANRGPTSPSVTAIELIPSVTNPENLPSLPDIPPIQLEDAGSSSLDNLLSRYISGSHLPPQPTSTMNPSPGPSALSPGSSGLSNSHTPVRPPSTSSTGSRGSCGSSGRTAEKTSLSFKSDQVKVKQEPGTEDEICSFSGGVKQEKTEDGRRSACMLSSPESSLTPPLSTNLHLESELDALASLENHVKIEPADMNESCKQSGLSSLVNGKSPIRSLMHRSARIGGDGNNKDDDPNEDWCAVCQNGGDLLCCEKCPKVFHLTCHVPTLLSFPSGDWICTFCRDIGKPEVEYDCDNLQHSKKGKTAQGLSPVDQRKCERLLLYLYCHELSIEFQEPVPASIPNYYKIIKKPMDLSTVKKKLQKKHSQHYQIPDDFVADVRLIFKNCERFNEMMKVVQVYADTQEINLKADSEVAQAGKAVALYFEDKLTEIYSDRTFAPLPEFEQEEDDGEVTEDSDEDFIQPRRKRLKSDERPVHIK
# Assay: BromoKdMAX (BROMOscan) TRIM33(PHD, Bromo.)
# Type: binding
# Conditions: TRIM33(PHD, Bromo.) (Entrez TRIM33)
# Description: A BromoKdMAX was performed at DiscoverX.
# BROMOscan™ is a novel industry leading platform for identifying small molecule bromodomain inhibitors. Based on proven KINOMEscan™ technology, BROMOscan™ employs a proprietary ligand binding site-directed competition assay to quantitatively measure interactions between test compounds and bromodomains. This robust and reliable assay panel is suitable for high throughput screening and delivers quantitative ligand binding data to facilitate the identification and optimization of potent and selective small molecule bromodomain inhibitors.
# For the Bromodomain assays, T7 phage strains displaying bromodomains were grown in parallel in 24-well blocks in an E. coli host derived from the BL21 strain. E. coli were grown to log-phase and infected with T7 phage from a frozen stock (multiplicity of infection=0.4) and incubated with shaking at 32° C. until lysis (90-150 minutes). The lysates were centrifuged (5,000×g) and filtered (0.2 μm) to remove cell debris. […] The liganded beads were blocked with excess biotin and washed with blocking buffer (SeaBlock (Pierce), 1% BSA, 0.05% Tween 20, 1 mM DTT) to remove unbound ligand and to reduce non-specific phage binding. […] Kds were determined using an 11-point 3-fold compound dilution series with one DMSO control point. […] The bromodomain concentration in the eluates was measured by qPCR.
row,Structure (SMILES),pKd
1,"COc1cncc(-c2cc(Nc3cccc(F)c3)nc([C@@H]3CC[C@H](C)N(C(C)=O)C3)n2)c1 [Compound 00212, (−)-1-((2S,5R)-5-(4-((3-fluorophenyl)amino)-6-(5-methoxypyridin-3-yl)pyrimidin-2-yl)-2-methylpiperidin-1-yl)ethan-1-one]",< 5.00
